Results reported in ChEMBL document CHEMBL3352228 (J Med Chem, 2014).

Tested on: Plasma
Test: not given
Details: rat, in vivo, po, 10 mg/kg, 4 h

| Cp(f) [nM] | SMILES |
| --- | --- |
| 45 | CC1(C)C=C(c2cnc3c(c2)[C@]2(COC(N)=N2)c2cc(-c4cccnc4F)ccc2O3)CCO1 |

Tested on: not listed separately
Test: in vivo
Details: Sprague-Dawley, rat, plasma, po, 10 mg/kg

| concentration at 4 h [nM] | SMILES |
| --- | --- |
| 1010 | CC1(C)C=C(c2cnc3c(c2)[C@]2(COC(N)=N2)c2cc(-c4cccnc4F)ccc2O3)CCO1 |

Tested on: not listed separately
Test: in vivo
Details: Sprague-Dawley, rat, CSF, po, 10 mg/kg

| concentration at 4 h [nM] | SMILES |
| --- | --- |
| 5 | CC1(C)C=C(c2cnc3c(c2)[C@]2(COC(N)=N2)c2cc(-c4cccnc4F)ccc2O3)CCO1 |

Tested on: not listed separately
Test: in vitro
Details: pig, LLC-PK1

| Papp at 2 h [×10⁻⁶ cm/s] | SMILES |
| --- | --- |
| 15 | NC1=N[C@@]2(CO1)c1cc(-c3cccnc3F)ccc1Oc1ncc(-c3ccnc(F)c3)cc12 |
| 12 | COC(C)(C)C#Cc1cnc2c(c1)[C@]1(COC(N)=N1)c1cc(-c3cccnc3F)ccc1O2 |
| 15 | NC1=N[C@@]2(CO1)c1cc(-c3cccnc3F)ccc1Oc1ncc(C3CCOCC3)cc12 |
| 11 | CC(C)(C)COc1cnc2c(c1)[C@]1(COC(N)=N1)c1cc(-c3cccnc3)ccc1O2 |
| 16 | N#Cc1ccc(-c2cnc3c(c2)[C@]2(COC(N)=N2)c2cc(-c4cccnc4F)ccc2O3)cc1 |
| 9.5 | CC(C)(C)C#Cc1cnc2c(c1)[C@]1(COC(N)=N1)c1cc(-c3cccnc3F)ccc1O2 |
| 16 | COC(C)(C)COc1cnc2c(c1)[C@]1(COC(N)=N1)c1cc(-c3cccnc3F)ccc1O2 |
| 14 | Cc1ccc(-c2cnc3c(c2)[C@]2(COC(N)=N2)c2cc(-c4cccnc4F)ccc2O3)cc1 |

The remaining lines, values behind:

| SMILES | Papp at 2 h [×10⁻⁶ cm/s] |
| --- | --- |
| NC1=N[C@@]2(CO1)c1cc(-c3cccnc3F)ccc1Oc1ncc(N3CCOCC3)cc12 | 10 |
| CC(C)(C)COc1ccc2c(c1)[C@]1(COC(N)=N1)c1cc(-c3cncnc3)cnc1O2 | 16 |
| CC1(C)C=C(c2cnc3c(c2)[C@]2(COC(N)=N2)c2cc(-c4cccnc4F)ccc2O3)CCO1 | 17 |
| NC1=N[C@@]2(CO1)c1cc(-c3cccnc3F)ccc1Oc1ncc(C3=CCCOC3)cc12 | 11 |
| NC1=N[C@@]2(CO1)c1cc(-c3cccnc3F)ccc1Oc1ncc(C3=CCOCC3)cc12 | 20 |
| CC(C)(C)COc1cnc2c(c1)[C@]1(COC(N)=N1)c1cc(-c3cccnc3F)ccc1O2 | 14 |
| CC(C)(C)COc1cnc2c(c1)[C@]1(COC(N)=N1)c1cc(-c3cncnc3)ccc1O2 | 16 |
| CC(C)(O)C#Cc1cnc2c(c1)[C@]1(COC(N)=N1)c1cc(-c3cccnc3F)ccc1O2 | 11 |
